Test results reported in article PMC5218480 (PLoS ONE, 2017).

Tested on: MV-4-11 cells
Assay: Gene expression microarray analysis (Affymetrix PrimeView) and GSEA
Format: cell-based, human
Design: RFU PODN (11730768_x_at) / Fold change /veh PODN (11730768_x_at) / RFU LINC00158 (11744669_a_at) / Fold change /veh LINC00158 (11744669_a_at) / RFU DUSP10 (11751237_a_at) / Fold change /veh DUSP10 (11751237_a_at) / RFU ID3 (11757404_x_at) / Fold change /veh ID3 (11757404_x_at) / RFU PLEKHG5 (11737974_s_at) / Fold change /veh PLEKHG5 (11737974_s_at) / RFU LRRC4B (11730491_at) / Fold change /veh LRRC4B (11730491_at) / RFU GIMAP4 (11747438_a_at) / Fold change /veh GIMAP4 (11747438_a_at) / RFU KRT8 (11758183_x_at) / Fold change /veh KRT8 (11758183_x_at) / RFU CNN1 (11734310_a_at) / Fold change /veh CNN1 (11734310_a_at) / RFU VPS37D (11726825_at) / Fold change /veh VPS37D (11726825_at) / RFU C10orf10 (11716522_x_at) / Fold change /veh C10orf10 (11716522_x_at) / RFU KIR2DL2 /// KIR2DL4 /// KIR2DL5A /// KIR2DL5B /// KIR2DS1 /// KIR2DS2 /// KIR2DS3 /// KIR2DS4 /// KIR3DL3 /// KIR3DL3 /// KIR3DS1 (11738374_at) / Fold change /veh KIR2DL2 /// KIR2DL4 /// KIR2DL5A /// KIR2DL5B /// KIR2DS1 /// KIR2DS2 /// KIR2DS3 /// KIR2DS4 /// KIR3DL3 /// KIR3DL3 /// KIR3DS1 (11738374_at) / RFU C1QL1 (11718748_at) / Fold change /veh C1QL1 (11718748_at) / RFU TMPRSS4 (11747572_a_at) / Fold change /veh TMPRSS4 (11747572_a_at) / RFU HAMP (11756126_x_at) / Fold change /veh HAMP (11756126_x_at) / RFU RNFT2 (11725882_a_at) / Fold change /veh RNFT2 (11725882_a_at) / RFU NR4A2 (11747474_a_at) / Fold change /veh NR4A2 (11747474_a_at) / RFU ABCC12 (11746883_a_at) / Fold change /veh ABCC12 (11746883_a_at) / RFU TMEM136 (11760407_x_at) / Fold change /veh TMEM136 (11760407_x_at) / RFU CLDN22 /// WWC2 (11732394_at) / Fold change /veh CLDN22 /// WWC2 (11732394_at) / RFU HLA-DPB1 (11760878_x_at) / Fold change /veh HLA-DPB1 (11760878_x_at) / RFU SPINT1 (11716480_a_at) / Fold change /veh SPINT1 (11716480_a_at) / RFU GAP43 (11754022_s_at) / Fold change /veh GAP43 (11754022_s_at) / RFU A4GNT (11735810_at) / Fold change /veh A4GNT (11735810_at) / RFU PRB3 (11715151_x_at) / Fold change /veh PRB3 (11715151_x_at) / RFU TUBB4B (11761932_at) / Fold change /veh TUBB4B (11761932_at) / RFU CAPN14 (11732068_a_at) / Fold change /veh CAPN14 (11732068_a_at) / RFU TMCC2 (11721928_a_at) / Fold change /veh TMCC2 (11721928_a_at) / RFU IRGQ (11745062_a_at) / Fold change /veh IRGQ (11745062_a_at) / RFU FAM174B (11720279_a_at) / Fold change /veh FAM174B (11720279_a_at) / RFU TMPRSS4 (11748680_a_at) / Fold change /veh TMPRSS4 (11748680_a_at) / RFU FAM212B (11763350_a_at) / Fold change /veh FAM212B (11763350_a_at) / RFU PLEKHG5 (11743358_a_at) / Fold change /veh PLEKHG5 (11743358_a_at) / RFU ZSCAN30 (11745921_a_at) / Fold change /veh ZSCAN30 (11745921_a_at) / RFU CMKLR1 (11741424_a_at) / Fold change /veh CMKLR1 (11741424_a_at) / RFU LOC101060620 /// MAPK8IP1 (11723275_at) / Fold change /veh LOC101060620 /// MAPK8IP1 (11723275_at) / RFU SPTSSB (11747773_x_at) / Fold change /veh SPTSSB (11747773_x_at) / RFU PRSS12 (11739890_at) / Fold change /veh PRSS12 (11739890_at) / RFU BIN1 (11741810_x_at) / Fold change /veh BIN1 (11741810_x_at) / RFU WNT11 (11732464_a_at) / Fold change /veh WNT11 (11732464_a_at) / RFU C10orf10 (11716521_a_at) / Fold change /veh C10orf10 (11716521_a_at) / RFU C5orf56 (11738089_at) / Fold change /veh C5orf56 (11738089_at) / RFU CYB561 (11721691_x_at) / Fold change /veh CYB561 (11721691_x_at) / RFU ANKRD19P (11752326_a_at) / Fold change /veh ANKRD19P (11752326_a_at) / RFU OR2T12 /// OR2T33 /// OR2T8 (11738714_s_at) / Fold change /veh OR2T12 /// OR2T33 /// OR2T8 (11738714_s_at) / RFU VCAN (11748164_a_at) / Fold change /veh VCAN (11748164_a_at) / RFU JSRP1 (11732532_at) / Fold change /veh JSRP1 (11732532_at) / RFU KRTAP10-11 (11738290_x_at) / Fold change /veh KRTAP10-11 (11738290_x_at) / RFU MYO3A (11730013_a_at) / Fold change /veh MYO3A (11730013_a_at) / RFU EBF3 (11725865_a_at) / Fold change /veh EBF3 (11725865_a_at) / RFU CAMK2N1 (11719241_x_at) / Fold change /veh CAMK2N1 (11719241_x_at) / RFU C5orf56 (11738088_a_at) / Fold change /veh C5orf56 (11738088_a_at) / RFU OLFML3 (11715873_a_at) / Fold change /veh OLFML3 (11715873_a_at) / RFU LOC100653217 /// NTM (11731650_a_at) / Fold change /veh LOC100653217 /// NTM (11731650_a_at) / RFU MAPK11 (11762145_a_at) / Fold change /veh MAPK11 (11762145_a_at) / RFU FIZ1 (11724087_x_at) / Fold change /veh FIZ1 (11724087_x_at) / RFU OASL (11726364_x_at) / Fold change /veh OASL (11726364_x_at) / RFU SOX15 (11748057_x_at) / Fold change /veh SOX15 (11748057_x_at) / RFU CD79A (11719716_a_at) / Fold change /veh CD79A (11719716_a_at) / RFU HIST1H1D (11736915_at) / Fold change /veh HIST1H1D (11736915_at) / RFU CASKIN2 (11723855_a_at) / Fold change /veh CASKIN2 (11723855_a_at) / RFU LOC730098 (11760151_x_at) / Fold change /veh LOC730098 (11760151_x_at) / RFU OR4N2 (11742367_at) / Fold change /veh OR4N2 (11742367_at) / RFU PRRT2 (11749266_a_at) / Fold change /veh PRRT2 (11749266_a_at) / RFU SNX32 (11753110_a_at) / Fold change /veh SNX32 (11753110_a_at) / RFU CDHR5 (11726645_a_at) / Fold change /veh CDHR5 (11726645_a_at) / RFU RCAN1 (11760418_a_at) / Fold change /veh RCAN1 (11760418_a_at) / RFU FAM167A (11723789_a_at) / Fold change /veh FAM167A (11723789_a_at) / RFU FAM26E (11764081_at) / Fold change /veh FAM26E (11764081_at) / RFU ISYNA1 (11749810_s_at) / Fold change /veh ISYNA1 (11749810_s_at) / RFU ACY1 (11761880_at) / Fold change /veh ACY1 (11761880_at) / RFU 11764098_at / Fold change /veh 11764098_at / RFU SAMD14 (11745864_x_at) / Fold change /veh SAMD14 (11745864_x_at) / RFU NPB (11741838_a_at) / Fold change /veh NPB (11741838_a_at) / RFU TMPRSS6 (11731388_a_at) / Fold change /veh TMPRSS6 (11731388_a_at) / RFU KRTAP10-2 (11738614_at) / Fold change /veh KRTAP10-2 (11738614_at) / RFU ARHGAP8 /// PRR5-ARHGAP8 (11727945_x_at) / Fold change /veh ARHGAP8 /// PRR5-ARHGAP8 (11727945_x_at) / RFU KRTAP5-7 /// NADSYN1 (11734609_at) / Fold change /veh KRTAP5-7 /// NADSYN1 (11734609_at) / RFU RASL12 (11751679_a_at) / Fold change /veh RASL12 (11751679_a_at) / RFU CDKN2B (11736163_a_at) / Fold change /veh CDKN2B (11736163_a_at) / RFU PRF1 (11729649_at) / Fold change /veh PRF1 (11729649_at) / RFU, ZNF638 /// ZNF638-IT1 / Fold change vs veh, ZNF638 /// ZNF638-IT1 / RFU, PANK3 / Fold change vs veh, PANK3 / RFU, SH3YL1 / Fold change vs veh, SH3YL1 / RFU, ZEB2 / Fold change vs veh, ZEB2 / RFU, NRIP1 / Fold change vs veh, NRIP1 / RFU, PTTG1IP / Fold change vs veh, PTTG1IP / RFU, CAPN2 / Fold change vs veh, CAPN2 / RFU, MED14 / Fold change vs veh, MED14 / RFU, SNORA58 / Fold change vs veh, SNORA58 / RFU, C1orf63 / Fold change vs veh, C1orf63 / RFU, LRRFIP1 / Fold change vs veh, LRRFIP1 / RFU, NDUFAF7 / Fold change vs veh, NDUFAF7 / RFU, SLC12A2 / Fold change vs veh, SLC12A2 / RFU, IBTK / Fold change vs veh, IBTK / RFU, ESF1 / Fold change vs veh, ESF1 / Fold change vs veh, TMEM50B / RFU, TAOK1 / Fold change vs veh, TAOK1 / RFU, ACBD3 / Fold change vs veh, ACBD3 / RFU, TMA16 / Fold change vs veh, TMA16 / RFU, RWDD3 / Fold change vs veh, RWDD3 / RFU, BCAT1 / Fold change vs veh, BCAT1 / RFU, EDEM3 / Fold change vs veh, EDEM3 / RFU, TMEM33 / Fold change vs veh, TMEM33 / RFU, WDR75 / Fold change vs veh, WDR75 / RFU, AHCTF1 / Fold change vs veh, AHCTF1 / RFU, TFRC / Fold change vs veh, TFRC / RFU, ZDHHC17 / Fold change vs veh, ZDHHC17 / RFU, NOM1 / Fold change vs veh, NOM1 / RFU, ARL8B / Fold change vs veh, ARL8B / RFU, ZBTB11 / Fold change vs veh, ZBTB11 / RFU, TAMM41 / Fold change vs veh, TAMM41 / RFU, KIAA1704 /// LOC100996395 / Fold change vs veh, KIAA1704 /// LOC100996395 / RFU, ING1 / Fold change vs veh, ING1 / RFU, TRMT61B / Fold change vs veh, TRMT61B / RFU, FUBP3 / Fold change vs veh, FUBP3 / RFU, TP53 / Fold change vs veh, TP53 / RFU, TNKS2 / Fold change vs veh, TNKS2 / RFU, ZFP14 / Fold change vs veh, ZFP14 / RFU, ACTR2 / Fold change vs veh, ACTR2 / RFU, PPP3R1 / Fold change vs veh, PPP3R1 / RFU, PIK3R1 / Fold change vs veh, PIK3R1 / RFU, HNRNPA1 / Fold change vs veh, HNRNPA1 / RFU, RNF170 / Fold change vs veh, RNF170 / RFU, ZNF28 / Fold change vs veh, ZNF28 / RFU, RNGTT / Fold change vs veh, RNGTT / RFU, OGT / Fold change vs veh, OGT / RFU, BRD1 / Fold change vs veh, BRD1 / RFU, MARS / Fold change vs veh, MARS / RFU, ZNF655 / Fold change vs veh, ZNF655 / RFU, FAHD1 / Fold change vs veh, FAHD1 / RFU, BDP1 / Fold change vs veh, BDP1 / RFU, LRRCC1 / Fold change vs veh, LRRCC1 / RFU, ARID1A / Fold change vs veh, ARID1A / RFU, ZNF146 / Fold change vs veh, ZNF146 / RFU, ZNF330 / Fold change vs veh, ZNF330 / RFU, GPN3 / Fold change vs veh, GPN3 / RFU, C9orf123 / Fold change vs veh, C9orf123 / RFU, N4BP2L2 / Fold change vs veh, N4BP2L2 / RFU, ARFIP1 / Fold change vs veh, ARFIP1 / RFU, FAM179B / Fold change vs veh, FAM179B / RFU, BCL10 / Fold change vs veh, BCL10 / RFU, UHRF1BP1L / Fold change vs veh, UHRF1BP1L / RFU, BET1 / Fold change vs veh, BET1 / RFU, CNOT2 / Fold change vs veh, CNOT2 / RFU, ZNF268 / Fold change vs veh, ZNF268 / Fold change vs veh, ZNF507 / RFU, DGCR2 / Fold change vs veh, DGCR2 / RFU, WDSUB1 / Fold change vs veh, WDSUB1 / Fold change vs veh, HSP90B1 /// MIR3652 / RFU, ADSS / Fold change vs veh, ADSS / RFU, GK / Fold change vs veh, GK / RFU, ZNF148 / Fold change vs veh, ZNF148 / RFU, TAF9 / Fold change vs veh, TAF9 / RFU, SLC1A5 / Fold change vs veh, SLC1A5 / RFU, SLMO2 / Fold change vs veh, SLMO2 / RFU, ABCC4 / Fold change vs veh, ABCC4 / RFU, LOC101060439 /// RAP1B / Fold change vs veh, LOC101060439 /// RAP1B / RFU, RFX7 / Fold change vs veh, RFX7 / RFU, GTPBP10 / Fold change vs veh, GTPBP10 / RFU, CNEP1R1 / Fold change vs veh, CNEP1R1 / RFU, BIVM-ERCC5 /// ERCC5 / Fold change vs veh, BIVM-ERCC5 /// ERCC5 / RFU, ILF3 / Fold change vs veh, ILF3 / RFU 11762660_at / Fold change /veh 11762660_at / RFU VCAN (11757783_s_at) / Fold change /veh VCAN (11757783_s_at) / RFU DDX43 (11728927_at) / Fold change /veh DDX43 (11728927_at) / RFU KRT8 (11758188_x_at) / Fold change /veh KRT8 (11758188_x_at) / RFU NKD1 (11759106_at) / Fold change /veh NKD1 (11759106_at) / RFU SRD5A1 (11742802_a_at) / Fold change /veh SRD5A1 (11742802_a_at) / RFU TPSAB1 /// TPSB2 (11721975_s_at) / Fold change /veh TPSAB1 /// TPSB2 (11721975_s_at) / RFU GSTM3 (11746129_a_at) / Fold change /veh GSTM3 (11746129_a_at) / RFU IL23R (11737362_x_at) / Fold change /veh IL23R (11737362_x_at) / RFU TMEM51 (11727254_a_at) / Fold change /veh TMEM51 (11727254_a_at) / RFU PIWIL2 (11732686_x_at) / Fold change /veh PIWIL2 (11732686_x_at) / RFU ORM1 (11744905_x_at) / Fold change /veh ORM1 (11744905_x_at) / RFU CCDC152 (11743942_at) / Fold change /veh CCDC152 (11743942_at) / RFU ECM1 (11717891_a_at) / Fold change /veh ECM1 (11717891_a_at) / RFU IL23R (11748794_a_at) / Fold change /veh IL23R (11748794_a_at) / RFU TNFAIP8L3 (11732012_x_at) / Fold change /veh TNFAIP8L3 (11732012_x_at) / RFU MBOAT4 (11741988_at) / Fold change /veh MBOAT4 (11741988_at) / RFU 11764193_at / Fold change /veh 11764193_at / RFU TMEM53 (11763286_at) / Fold change /veh TMEM53 (11763286_at) / RFU MAGEB2 (11727129_at) / Fold change /veh MAGEB2 (11727129_at) / RFU TMEM200A (11744735_a_at) / Fold change /veh TMEM200A (11744735_a_at) / RFU CCDC152 (11751479_a_at) / Fold change /veh CCDC152 (11751479_a_at) / RFU FAM211A (11726209_a_at) / Fold change /veh FAM211A (11726209_a_at) / RFU RGS16 (11746705_a_at) / Fold change /veh RGS16 (11746705_a_at) / RFU VCAN (11755009_s_at) / Fold change /veh VCAN (11755009_s_at) / RFU RHOB (11743442_s_at) / Fold change /veh RHOB (11743442_s_at) / RFU RGS16 (11720943_a_at) / Fold change /veh RGS16 (11720943_a_at) / RFU RGS16 (11720944_at) / Fold change /veh RGS16 (11720944_at) / RFU, VPS4B / Fold change vs veh, VPS4B / RFU, CREB1 / Fold change vs veh, CREB1 / RFU, DNAJC13 / Fold change vs veh, DNAJC13 / RFU, GNAQ / Fold change vs veh, GNAQ / RFU, CDK5R1 / Fold change vs veh, CDK5R1 / RFU, ZRANB3 / Fold change vs veh, ZRANB3 / RFU, CUL4A / Fold change vs veh, CUL4A / RFU, CCNY / Fold change vs veh, CCNY / RFU, UFL1 / Fold change vs veh, UFL1 / RFU, COG3 / Fold change vs veh, COG3 / RFU, DIAPH2 / Fold change vs veh, DIAPH2 / RFU, SKA2 / Fold change vs veh, SKA2 / RFU, AFF3 / Fold change vs veh, AFF3 / RFU, LMF1 / Fold change vs veh, LMF1 / RFU, IPO11 / Fold change vs veh, IPO11 / RFU, DFFB / Fold change vs veh, DFFB / RFU, FOXP1 / Fold change vs veh, FOXP1 / RFU, CARD8 / Fold change vs veh, CARD8 / RFU, STRN3 / Fold change vs veh, STRN3 / RFU, ADK / Fold change vs veh, ADK / RFU, RASSF2 / Fold change vs veh, RASSF2 / RFU, WIPF1 / Fold change vs veh, WIPF1 / RFU, LARP1B / Fold change vs veh, LARP1B / RFU, RASA1 / Fold change vs veh, RASA1 / RFU, RB1 / Fold change vs veh, RB1 / RFU, PPFIA1 / Fold change vs veh, PPFIA1 / RFU, MAT2A / Fold change vs veh, MAT2A / RFU, CCT5 / Fold change vs veh, CCT5 / RFU, WDR92 / Fold change vs veh, WDR92 / RFU, CUX1 / Fold change vs veh, CUX1 / RFU, TTC7A / Fold change vs veh, TTC7A / RFU, TMEM135 / Fold change vs veh, TMEM135 / RFU, DEPTOR / Fold change vs veh, DEPTOR / RFU, CPM / Fold change vs veh, CPM / RFU, DNAJB6 / Fold change vs veh, DNAJB6 / RFU, CACNA2D3 / Fold change vs veh, CACNA2D3 / RFU, DTX4 / Fold change vs veh, DTX4 / RFU, TFCP2 / Fold change vs veh, TFCP2 / RFU, GMCL1 /// GMCL1P1 / Fold change vs veh, GMCL1 /// GMCL1P1 / RFU, AEBP2 / Fold change vs veh, AEBP2 / RFU, SNHG1 /// SNORD22 /// SNORD25 /// SNORD26 /// SNORD27 /// SNORD28 /// SNORD29 /// SNORD31 / Fold change vs veh, SNHG1 /// SNORD22 /// SNORD25 /// SNORD26 /// SNORD27 /// SNORD28 /// SNORD29 /// SNORD31 / Fold change (Aza/veh), C12orf56 (ProbeSet 11735607_a_at) / Fold change (ACY-1035/veh), C12orf56 (ProbeSet 11735607_a_at) / Fold change (Aza/veh), FGFR1OP (ProbeSet 11751329_s_at) / Fold change (ACY-1035/veh), FGFR1OP (ProbeSet 11751329_s_at) / Fold change (Aza/veh), VPS36 (ProbeSet 11739960_a_at) / Fold change (ACY-1035/veh), VPS36 (ProbeSet 11739960_a_at) / RFU SYPL1 (11715823_x_at) / Fold change /veh SYPL1 (11715823_x_at) / RFU IGFBP7 (11715501_s_at) / Fold change /veh IGFBP7 (11715501_s_at) / RFU REEP3 (11722064_at) / Fold change /veh REEP3 (11722064_at) / RFU IGLL1 (11728026_x_at) / Fold change /veh IGLL1 (11728026_x_at): dose or concentration left out as unconfirmed
Details: ProbeSet 11757268_x_at; LIST B

## Nc1ncn([C@@H]2O[C@H](CO)[C@@H](O)[C@H]2O)c(=O)n1 [azacitidine]
  Fold change vs veh, HNRNPA1: 0.91
